Reference: PMC7766697, “Toxicological Screening of Four Bioactive Citroflavonoids: In Vitro, In Vivo, and In Silico Approaches” (Molecules, 2020)
Where “and” joins values, the source holds several entries; their conditions need not be identical. Equal values may be shown once. Read-outs that look alike come from different tables or passages of the source.

How the values were obtained:
Wistar rats [1] = assay: Acute oral toxicity, OECD Test No. 423 (mortality, signs, LD50, body weight); assay type: in vivo; settings: oral 300 and 2000 mg/kg, test days 2, 3, 9 and 10
Procedure: Female Wistar rats (250 g b.w.) were used. These animals were obtained from Bioterium from División de Ciencias de la Salud at the Universidad de Quintana Roo. They were maintained under standard environmental conditions (22 ± 3 °C, 12 h/12 h light/dark cycle), and free access to standard rodent diet and water ad libitum. All animal procedures were conducted under our Federal Regulations for Animal Experimentation and Care and were approved by the Institutional Animal Care and Use Committee of the “Universidad Juárez Autónoma de Tabasco” university (Code:2017-001, Approved: October 2017). Rats were acclimatized for 1 week before the start of experimental procedures.
The half lethal dose (LD50) was estimated using the fixed-dose method described in OECD Guidelines for the Testing of Chemicals (Test No. 423: Acute Oral Toxicity-Class Method; OECD, 2001). […] This method allowed a step-by-step assay according to the chosen dose to begin the experiment. Subsequently, depending on the presence or absence of mortality, the decision to continue within the next step is taken, so fewer experimental animals should be used.
(§1) Rats used for this experiment were fasted for 8 h and were organized into two groups of three rats for each dose and each flavonoid. Likewise, the control group received isotonic 0.9% sodium chloride solution (dose: 5 mL/kg). All rats were closely observed for toxic symptoms and behavioral changes (sedation, hyperactivity, writhing, pruritus, feeding and drinking habits, general morphological changes, and bite legs) for 30 min and periodically 24 h post-administration. Animals were observed daily (14 days) and mortality rate recorded. A LD50 was estimated according to criteria of OECD guide 423.
The rats’ body weight in each group was determined and recorded before the treatment initiation and after 14 days. Changes in the body weight at the end of the 14 days were calculated. Once observation time was completed and to detect any adverse effect, blood samples were collected by cardiac puncture after the previous fasting of 8 h. […] In addition, organ weight was determined.

VERO cells = assay: MTT-based cytotoxicity assay in VERO cells; assay type: cell-based, green Monkey; settings: 48 h, 125 to 750 µg/mL (QRT effect at 250–750 µg/mL)
Procedure: (§2) VERO and MDCK cell lines were acquired from American Type Culture Collection (ATCC, Manassas, VA, USA). […] In vitro cytotoxicity assay was performed on Madin-Darby Canine Kidney Epithelial Cells (MDCK) and green Monkey Kidney Cells (VERO) by MTT-based assay. Briefly, cells were seeded in 96-well plates at a density of 2.5 × 10^3 cells/well. […] The absorbance was measured after 45 min using a microplate reader (Multiskan Asent®) at a wavelength of 550 nm. The criteria for categorizing cytotoxicity against MDCK and VERO cells are based on the U.S. National Cancer Institute (NCI). The criteria comprise as follow: […] All results were expressed as mean ± standard error. The results from the in vivo and in vitro experiments were analyzed using software Origin® 8.0. […] The IC50 (half inhibitory concentration) values were calculated in Origin software®, (Northampton, MA, USA) and one-way ANOVA analysis was compared with cisplatin as the control.

Wistar rats [2] = assay type: in vivo
Procedure: as §1
The rats’ body weight in each group was determined and recorded before the treatment initiation and after 14 days. Changes in the body weight at the end of the 14 days were calculated. Once observation time was completed and to detect any adverse effect, blood samples were collected by cardiac puncture after the previous fasting of 8 h. For this purpose, rats were anesthetized by intraperitoneally 50 mg/kg sodium pentobarbital. The liver was carefully extracted, rinsed in normal saline, drained on blotting paper, and carefully examined for tissue lesions. In addition, organ weight was determined.
Rat blood samples were analyzed by a hematology auto-analyzer system (Sysmex XS-1000i®, SYSMEX®, Oak Ridge, TN, USA). The parameters quantified on this stage were: blood count-packed cell volume (PCV), red blood cell (RBC) count, hemoglobin (Hb), platelet count, white blood cell (WBC) count, mean cell hemoglobin concentration (MCHC), mean red cell volume (MCV), mean cell hemoglobin (MCH), prothrombin time (PT), and activated partial thromboplastin time (aPTT).

MDCK cells = assay: MTT-based cytotoxicity assay in MDCK cells; assay type: cell-based, Canine; settings: 48 h, 125 to 750 µg/mL (QRT effect at 250 and 500 µg/mL)
Procedure: as §2

Wistar rats [3] = settings: rat, in vivo, po
[4] = MTT-based cytotoxicity assay in VERO cells; assay type: cell-based, green Monkey; settings: green monkey, MTT
Procedure: as §2

Swiss-albino mice = settings: cited from earlier work

## O=C1C[C@@H](c2ccc(O)cc2)Oc2cc(O)cc(O)c21 [NARGE, naringenin]
Wistar rats [1]
  rats' weight vs control: modifies rats’ weight
VERO cells
  percentage viability / growth of cells: did not change the percentage of growth
Wistar rats [2]; rat, in vivo, po, 300 mg/kg
  Erythrocytes: 6.98±1.18 106/µL
  Hb: 12.00 ± 1.81 g/dL
  Hto: 36.76±5.31%
  Leukocytes: 5.31±0.74 103/µL
  MCH: 17.40 ± 0.39 pg
  MCHC: 32.53 ± 0.49 g/dL
  MCV: 53.46 ± 1.87 fL
  Platelets: 726.00±12.26 105/µL
  RBCDW: 17.80±1.89%
Wistar rats [2]; rat, in vivo, po, 2000 mg/kg
  APTT: 26.26 ± 1.85 s
  Erythrocytes: 8.03±0.29 106/µL
  Hb: 14.23 ± 0.22 g/dL
  Hto: 44.63±0.44%
  Leukocytes: 5.57±1.20 103/µL
  MCH: 18.05 ± 0.39 pg
  MCHC: 31.25 ± 0.18 g/dL
  MCV: 57.85 ± 1.59 fL
  PT: 15.46 ± 0.71 s
  RBCDW: 18.93±0.14%
MDCK cells
  percentage viability / growth of cells: did not change the percentage of growth
Wistar rats [3]; 300 mg/kg
  ALB (albumin): 3.86 ± 0.10 g/dL
  ALB/GL Ratio: 1.26 ± 0.08
  ALT: 39.19 ± 0.77 IU/L
  AST: 156.06 ± 9.33 IU/L
  DB (direct bilirubin): 0.013 ± 0.007 mg/dL
  GL (globulin): 3.11 ± 0.25 g/dL
  GLU (glucose): 145.29 ± 5.47 mg/dL
  IB (indirect bilirubin): 0.051 ± 0.007 mg/dL
  TB (total bilirubin): 0.064 ± 0.005 mg/dL
  TP (total protein): 6.97 ± 0.30 g/dL
Wistar rats [3]; 2000 mg/kg
  ALB (albumin): 4.74 ± 0.16 g/dL
  ALB/GL Ratio: 1.56 ± 0.14
  ALT: 57.68 ± 10.97 IU/L
  AST: 149.37 ± 7.16 IU/L
  DB (direct bilirubin): 0.020 ± 0.001 mg/dL
  GL (globulin): 3.08 ± 0.17 g/dL
  GLU (glucose): 175.56 ± 6.80 mg/dL
  IB (indirect bilirubin): 0.045 ± 0.060 mg/dL
  TB (total bilirubin): 0.065 ± 0.007 mg/dL
  TP (total protein): 7.82 ± 0.07 g/dL

## O=c1c(O)c(-c2ccc(O)c(O)c2)oc2cc(O)cc(O)c12 [QRT, Quercetin]
[4]
  IC50 at 48 h: 465 µM and 141 µg/mL
[4]; abstract, first value of 'respectively'
  IC50 at 48 h: 219 ± 7.22 µM
VERO cells
  percentage viability / growth of cells: produced a decrease in the percentage viability
Swiss-albino mice; 128 or 450 mg/kg orally for 14 days
  alkaline phosphatase (ALP): increased
Swiss-albino mice; higher dose, orally for 14 days
  AST: declined
Swiss-albino mice; only at 128 mg/kg, orally for 14 days
  bilirubin: also increased
Wistar rats [2]
  MCV: 56.45 ± 3.05 fL
  PT: 16.20 ± 2.00 s
  Platelets: 759.00±22.00 105/µL
  RBCDW: 17.95±0.45%
Wistar rats [2]; rat, in vivo, po, 50 mg/kg
  APTT: 14.55 ± 0.25 s
  Hb: 14.55 ± 0.65 g/dL
  Hto: 45.50±2.30%
  Leukocytes: 3.65±0.60 103/µL
  MCH: 18.05 ± 0.85 pg
Wistar rats [2]; rat, in vivo, po, 300 mg/kg
  APTT: 15.75 ± 1.45 s
  Erythrocytes: 8.12±0.32 106/µL
  Hb: 14.67 ± 0.45 g/dL
  Hto: 45.73±1.15%
  Leukocytes: 4.21±0.38 103/µL
  MCH: 18.07 ± 0.20 pg
  MCV: 56.37 ± 0.90 fL
  PT: 16.00 ± 2.65 s
  Platelets: 665.00±125.33 105/µL
  RBCDW: 16.80±0.20%
MDCK cells
  percentage viability / growth of cells: caused significant differences in the rate of cell viability
Wistar rats [3]; 50 mg/kg
  ALB (albumin): 3.88 ± 0.04 g/dL
  ALB/GL Ratio: 1.56 ± 0.087
  GL (globulin): 2.50 ± 0.14 g/dL
  GLU (glucose): 119.67 ± 8.74 mg/dL
  IB (indirect bilirubin): 0.036 ± 0.003 mg/dL
  TB (total bilirubin): 0.08 ± 0.006 mg/dL
  TP (total protein): 6.38 ± 0.15 g/dL
Wistar rats [3]; 300 mg/kg
  ALB (albumin): 3.63 ± 0.09 g/dL
  ALB/GL Ratio: 1.39 ± 0.15
  DB (direct bilirubin): 0.016 ± 0.004 mg/dL
  GL (globulin): 2.84 ± 0.16 g/dL
  GLU (glucose): 149.49 ± 5.00 mg/dL
  IB (indirect bilirubin): 0.030 ± 0.006 mg/dL
  TB (total bilirubin): 0.05 ± 0.003 mg/dL
  TP (total protein): 6.48 ± 0.065 g/dL
